Measured values: paper PMC8617031, “Development of a BCL-xL and BCL-2 dual degrader with improved anti-leukemic activity,” (Nature Communications, 2021)
Values joined by “and” are separate entries in the source; they are usually repeats but may differ in a detail not shown here. Identical values can stand only once.

Assays:
[1] = target: T1, His-tagged BCL-2 (Homo sapiens, UniProt P10415); assay: AlphaScreen competitive binary binding, BCL-2 (biotin-BIM peptide); conditions: for binary binding affinity to BCL-2 (in words): AlphaScreen, Supplementary Fig. 6
T1 construct: purchased Sigma-Aldrich SRP0186
Description: (§1) The reagents were diluted in a buffer containing 250 mM HEPES pH 7.5, 1 M NaCl, 1% BSA, and 0.05% Tween-80. His-tagged BCL-xL (0.5 nM, Cat. No. SRP0187, Sigma-Aldrich) or BCL-2 (1 nM, Cat. No. SRP0186, Sigma-Aldrich) were incubated with serial diluted 753a or 753b and 2 nM biotin-tagged BAD (biotin-[…] amino-terminal, AnaSpec, for BCL-xL) or 10 nM BIM peptides (biotin-[…] N-terminal, AnaSpec, for BCL-2) to a final volume of 40 µl in a 96-well PCR plate. […] After incubation for 2 h, 5 µl 6× His-acceptor beads (Cat. No. AL128M, PerkinElmer) were added to each well at 20 µg/ml final concentration and incubated for 1 h. Then 5 µl streptavidin-donor beads were added (Cat. No. 6760002, PerkinElmer) to each well at 20 µg/ml final concentration and incubated for 45 min. At the end of the incubation period, 17 µl of each sample was transferred in adjacent wells of 384-well proxy plate (Cat. No. 6008280, PerkinElmer). The plate was scanned using the Alpha program on Biotek’s Synergy Neo2 multimode plate reader. The inhibition constant (Ki) was calculated using the non-linear regression, one site, competitive binding, Fit Ki function on GraphPad Prism 9 software, based on experimentally determined dissociation constant (Kd) for each protein–peptide pair.

[2] = target: T2, His-tagged BCL-xL (Homo sapiens, UniProt Q07817); assay: AlphaScreen competitive binary binding, BCL-xL (biotin-BAD peptide); conditions: for binary binding affinity to BCL-xL (in words): AlphaScreen, Supplementary Fig. 6
T2 construct: purchased Sigma-Aldrich SRP0187
Description: as §1

[3] = tested on: Kasumi-1 cells; assay: Viability (MTS) of Kasumi-1 AML cells; assay type: cell-based, human; conditions: Kasumi, 24h, Fig. 7c
[4] = tested on: 293T cells; assay: Viability (MTS) of 293T cells; assay type: cell-based, human; conditions: normalised to own plate; for 293T cell viability, MTS absorbance 490 as percent of untreated control, mean of three wells: mean of 3 wells
Description: Suspension cells were treated 30 min after seeding, whereas adherent cells were allowed to adhere overnight and were then treated. Compound treatments were prepared in complete cell culture medium and 100 µl of 2× treatment-containing medium were added to each well. Complete cell culture medium without treatment was added in control wells, and wells containing medium without cells served as background. The outer wells of the 96-well plate were not used for treatment and were filled with 250 µl of PBS to reduce evaporation of medium from inner wells. Each compound and/or combination was tested at nine different concentrations with three replicates. The cell viability was measured after 72 h by tetrazolium-based MTS assay. MTS reagent (2 mg ml^–1 stock; cat. no. G1111, Promega) was freshly supplemented with phenazine methosulfate (PMS, 0.92 mg ml^–1 stock, cat. no. P9625, Sigma-Aldrich) in 20:1 ratio, and 20 µl of this mixture was added to each control and treatment well. The cells were incubated for 4 h at 37 °C and 5% CO2, and then the absorbance was recorded at 490 nm using Biotek’s Synergy Neo2 multimode plate reader (Biotek). The average absorbance value of background wells was subtracted from absorbance value of each control and treatment well, and percent cell viability ((At/A0) × 100)) was determined in each treatment well, where At is the absorbance value of the treatment well and A0 is the average absorbance value of control wells after background subtraction. The data were expressed as average percentage cell viability and fitted in non-linear regression curves using GraphPad Prism 7 (GraphPad Software, La Jolla, CA, USA).

[5] = BCL-2 Rep-2, plate row C, 1.25 uM
[6] = BCL-2 Rep-2, plate row D, 0.3125 uM
[7] = BCL-2 Rep-2, plate row E, 0.078125 uM
[8] = BCL-2 Rep-2, plate row F, 0.0195312 uM
[9] = BCL-2 Rep-2, plate row H, 0.0012207 uM
[10] = BCL-2 Rep-2, plate row I, 0.000305176 uM
[11] = BCL-2 Rep-2, plate row J, 7.62939e-5 uM
[12] = BCL-2 Rep-2, plate row K, 1.90735e-5 uM
[13] = BCL-xL Rep-1, plate row B, 5 uM
[14] = BCL-xL Rep-1, plate row D, 0.3125 uM
[15] = BCL-xL Rep-1, plate row E, 0.078125 uM
[16] = BCL-xL Rep-1, plate row F, 0.0195312 uM
[17] = BCL-xL Rep-1, plate row G, 0.00488281 uM
[18] = BCL-xL Rep-1, plate row H, 0.0012207 uM
[19] = BCL-xL Rep-1, plate row I, 0.000305176 uM
[20] = BCL-xL Rep-1, plate row J, 7.62939e-5 uM
[21] = BCL-xL Rep-1, plate row K, 1.90735e-5 uM
[22] = BCL-xL Rep-2, plate row B, 5 uM
[23] = BCL-xL Rep-2, plate row C, 1.25 uM
[24] = BCL-xL Rep-2, plate row D, 0.3125 uM
[25] = BCL-xL Rep-2, plate row E, 0.078125 uM
[26] = BCL-xL Rep-2, plate row F, 0.0195312 uM
[27] = BCL-xL Rep-2, plate row G, 0.00488281 uM
[28] = BCL-xL Rep-2, plate row H, 0.0012207 uM
[29] = BCL-xL Rep-2, plate row I, 0.000305176 uM
[30] = BCL-xL Rep-2, plate row K, 1.90735e-5 uM
[31] = BCL-xL, mean of the two replicate values (line without label)
[32] = BCL-xL, second value (line without label below Rep-1, apparently Rep-2)

T2 sequence (Q07817 whole entry): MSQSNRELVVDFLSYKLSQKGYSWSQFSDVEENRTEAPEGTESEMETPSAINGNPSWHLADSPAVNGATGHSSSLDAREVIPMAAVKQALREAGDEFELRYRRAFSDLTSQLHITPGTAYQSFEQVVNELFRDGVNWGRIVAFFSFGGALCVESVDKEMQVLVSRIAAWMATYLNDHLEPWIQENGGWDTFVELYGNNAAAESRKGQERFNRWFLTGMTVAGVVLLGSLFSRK
T1 sequence (P10415 whole entry): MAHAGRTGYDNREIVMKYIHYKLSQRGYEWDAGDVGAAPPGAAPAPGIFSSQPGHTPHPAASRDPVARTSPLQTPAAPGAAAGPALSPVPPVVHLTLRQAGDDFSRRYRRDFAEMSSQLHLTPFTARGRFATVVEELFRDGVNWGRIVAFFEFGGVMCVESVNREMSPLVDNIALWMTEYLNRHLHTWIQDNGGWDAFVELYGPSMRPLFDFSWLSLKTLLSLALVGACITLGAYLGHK

Cc1ncsc1-c1ccc([C@H](C)NC(=O)[C@@H]2C[C@@H](O)CN2C(=O)[C@@H](NC(=O)CCCCCCC(=O)N2CCN(C[C@@]3(C)CCC(c4ccc(Cl)cc4)=C(CN4CCN(c5ccc(C(=O)NS(=O)(=O)c6ccc(N[C@H](CCN7CCOCC7)CSc7ccccc7)c(S(=O)(=O)C(F)(F)F)c6)cc5)CC4)C3)CC2)C(C)(C)C)cc1 [753a]
binary binding affinity to BCL-2 (in words) [1]: much weaker than that of the warhead ABT263 | Alpha signal (raw counts) ([1]; BCL-2 Rep-2, 0.00488281 uM): 457099 and 452255 | Alpha signal (raw counts) [1, 5]: 11131 and 19293 | Alpha signal (raw counts) [1, 6]: 23398 and 21436 | Alpha signal (raw counts) [1, 7]: 28167 and 26661 | Alpha signal (raw counts) [1, 8]: 165828 and 146355 | Alpha signal (raw counts) [1, 9]: 607122 and 550701 | Alpha signal (raw counts) [1, 10]: 723572 and 761986 | Alpha signal (raw counts) [1, 11]: 723255 and 767572 | Alpha signal (raw counts) [1, 12]: 723831 and 708342 | binary binding affinity to BCL-xL (in words) [2]: much weaker than that of the warhead ABT263 | IC50 ([2]; BCL-xL Rep-1): 39 nM | Ki ([2]; BCL-xL Rep-1): 1.75 nM | Alpha signal (raw counts) [2, 13]: 27085 and 24738 | Alpha signal (raw counts) ([2]; BCL-xL Rep-1, plate row C, 1.25 uM): 28062 and 40230 | Alpha signal (raw counts) [2, 14]: 145116 and 115021 | Alpha signal (raw counts) [2, 15]: 433630 and 441172 | Alpha signal (raw counts) [2, 16]: 726417 and 752069 | Alpha signal (raw counts) [2, 17]: 950071 and 945138 | Alpha signal (raw counts) [2, 18]: 1050463 and 1074380 | Alpha signal (raw counts) [2, 19]: 1307721 and 1309993 | Alpha signal (raw counts) [2, 20]: 1113170 and 1173569 | Alpha signal (raw counts) [2, 21]: 1107772 and 1259986 | Alpha signal (raw counts) ([2]; BCL-xL Rep-2, 7.62939e-5 uM): 1188088 and 1161046 | Alpha signal (raw counts) [2, 22]: 24343 and 23695 | Alpha signal (raw counts) [2, 23]: 25479 and 38889 | Alpha signal (raw counts) [2, 24]: 95317 and 147841 | Alpha signal (raw counts) [2, 25]: 336804 and 343845 | Alpha signal (raw counts) [2, 26]: 767361 and 853215 | Alpha signal (raw counts) [2, 27]: 937707 and 1041403 | Alpha signal (raw counts) [2, 28]: 1127054 and 1147040 | Alpha signal (raw counts) [2, 29]: 1272095 and 1259132 | Alpha signal (raw counts) [2, 30]: 1255062 and 1549086 | Ki [2, 31]: 1.52 nM | Ki [2, 32]: 1.29 nM

Cc1ncsc1-c1ccc([C@H](C)NC(=O)[C@@H]2C[C@@H](O)CN2C(=O)[C@@H](NC(=O)CCCCCCC(=O)N2CCN(C[C@]3(C)CCC(c4ccc(Cl)cc4)=C(CN4CCN(c5ccc(C(=O)NS(=O)(=O)c6ccc(N[C@H](CCN7CCOCC7)CSc7ccccc7)c(S(=O)(=O)C(F)(F)F)c6)cc5)CC4)C3)CC2)C(C)(C)C)cc1 [753b]
Luminescence (raw plate reading) ([3]; 2um (plate column 11)): 42731 and 33855 and 41105 and 35447 | Luminescence (raw plate reading) ([3]; 4um (plate column 12)): 25069 and 21488 and 20344 and 20760 | binary binding affinity to BCL-2 (in words) [1]: much weaker than that of the warhead ABT263 | Alpha signal (raw counts) ([1]; BCL-2 Rep-2, 0.00488281 uM): 394963 and 403008 | Alpha signal (raw counts) ([1]; BCL-2 Rep-2, plate row B, 5 uM): 11331 and 13334 | Alpha signal (raw counts) [1, 5]: 13467 and 22674 | Alpha signal (raw counts) [1, 6]: 16676 and 24219 | Alpha signal (raw counts) [1, 7]: 24600 and 21594 | Alpha signal (raw counts) [1, 8]: 68045 | Alpha signal (raw counts) ([1]; BCL-2 Rep-2, plate row F, 0.0195312 uM, listed as 753B): 74511 | Alpha signal (raw counts) [1, 9]: 630958 and 595808 | Alpha signal (raw counts) [1, 10]: 751084 and 777257 | Alpha signal (raw counts) [1, 11]: 760517 and 786817 | Alpha signal (raw counts) [1, 12]: 880286 and 989418 | binary binding affinity to BCL-xL (in words) [2]: much weaker than that of the warhead ABT263 | IC50 ([2]; BCL-xL Rep-1): 25.6 nM | Ki ([2]; BCL-xL Rep-1): 1.15 nM | Alpha signal (raw counts) [2, 13]: 34683 and 41080 | Alpha signal (raw counts) [2, 14]: 104729 and 120739 | Alpha signal (raw counts) [2, 15]: 342247 and 341354 | Alpha signal (raw counts) [2, 16]: 676907 and 757834 | Alpha signal (raw counts) [2, 17]: 979745 and 1069221 | Alpha signal (raw counts) [2, 18]: 1220627 and 1147140 | Alpha signal (raw counts) [2, 19]: 1208908 and 1239363 | Alpha signal (raw counts) [2, 20]: 1272719 and 1257225 | Alpha signal (raw counts) [2, 21]: 1178982 and 1221697 | Alpha signal (raw counts) ([2]; BCL-xL Rep-2, 7.62939e-5 uM): 1287481 and 1327839 | Alpha signal (raw counts) [2, 22]: 27681 and 27423 | Alpha signal (raw counts) [2, 23]: 19946 and 33165 | Alpha signal (raw counts) [2, 24]: 104103 and 115603 | Alpha signal (raw counts) [2, 25]: 336015 and 412856 | Alpha signal (raw counts) [2, 26]: 814066 and 879407 | Alpha signal (raw counts) [2, 27]: 1170961 and 1327234 | Alpha signal (raw counts) [2, 28]: 1347085 and 1401728 | Alpha signal (raw counts) [2, 29]: 1445114 and 1473085 | Alpha signal (raw counts) [2, 30]: 1348563 and 1319629 | Ki [2, 31]: 1.31 nM | Ki [2, 32]: 1.48 nM | 293T cell viability, MTS absorbance 490 as percent of untreated control, mean of three wells ([4]; 0.00137174 uM): 105.831 | 293T cell viability, MTS absorbance 490 as percent of untreated control, single replicate well ([4]; 0.00137174 uM): 104.459 and 107.926 and 105.109 | 293T cell viability, MTS absorbance 490 as percent of untreated control, mean of three wells ([4]; 0.00411523 uM): 107.998 | 293T cell viability, MTS absorbance 490 as percent of untreated control, single replicate well ([4]; 0.00411523 uM): 111.934 and 109.117 and 102.943 | 293T cell viability, MTS absorbance 490 as percent of untreated control, mean of three wells ([4]; 0.037037 uM): 108.72 | 293T cell viability, MTS absorbance 490 as percent of untreated control, single replicate well ([4]; 0.037037 uM): 111.175 and 116.05 and 98.9348 | 293T cell viability, MTS absorbance 490 as percent of untreated control, mean of three wells ([4]; 0.111111 uM): 112.8 | 293T cell viability, MTS absorbance 490 as percent of untreated control, single replicate well ([4]; 0.111111 uM): 120.383 and 115.183 and 102.834 | 293T cell viability, MTS absorbance 490 as percent of untreated control, mean of three wells ([4]; 0.333333 uM): 109.37 | 293T cell viability, MTS absorbance 490 as percent of untreated control, single replicate well ([4]; 0.333333 uM): 118.975 and 109.225 and 99.9097 | 293T cell viability, MTS absorbance 490 as percent of untreated control, mean of three wells ([4]; 1 uM): 114.606 | 293T cell viability, MTS absorbance 490 as percent of untreated control, single replicate well ([4]; 1 uM): 117.133 and 117.566 and 109.117 | 293T cell viability, MTS absorbance 490 as percent of untreated control, mean of three wells ([4]; 3 uM): 79.3284 | 293T cell viability, MTS absorbance 490 as percent of untreated control, single replicate well ([4]; 3 uM): 74.5622 and 86.911 and 76.512
